According to patent US20060069132A1, “Azolecarboxamide herbicides” (priority 2004, published 2006):

What was measured:
wheat = test: Test B postemergence herbicide test; type: in vivo, Triticum aestivum; design: key to Wheat plant response rating: 0 = no effect, 100 = complete control; conditions: scale 0 (no effect) to 100 (complete control); for Wheat plant response rating: postemergence, visual rating
Outline: (§1)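 Greenhouse test; postemergence application to plants at 1–4 leaves (2–18 cm); paddy species at 2 leaves; evaluated visually vs controls at 13–15 days; scale 0–100 (100 = complete control).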

cocklebur = test: Test B pre-/postemergence herbicide test; type: in vivo, Xanthium strumarium; conditions: for Cocklebur plant response rating: postemergence, visual rating
Outline: (§2)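 Pre: seeds sown, then sprayed. Post: 1–4-leaf plants (2–18 cm) sprayed at the same time. Paddy: flooded, treated at 2-leaf stage. Formulation: non-phytotoxic solvent with surfactant. Greenhouse 13–15 days; visual 0–100 score relative to controls.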

morningglory = test: Test B pre-/postemergence herbicide test; type: in vivo, Ipomoea coccinea; conditions: for Morningglory plant response rating: postemergence, visual rating
Outline: as §2

Surinam grass = test: Test B pre-/postemergence herbicide test; type: in vivo, Urochloa decumbens; conditions: for Surinam Grass plant response rating: postemergence, visual rating
Outline: (§3)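 Evaluation is visual, comparing treated with control plants on a scale where 0 means no effect and 100 means full control. Treatments were preemergence, or postemergence on seedlings 2–18 cm tall, and held 13–15 days in the greenhouse.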

corn = test: Test B pre-/postemergence herbicide test; type: in vivo, Zea mays; conditions: for Corn plant response rating: postemergence, visual rating
Outline: as §3

lambsquarters = test: Test B pre-/postemergence herbicide test; type: in vivo, Chenopodium album; conditions: for Lambsquarters plant response rating: postemergence, visual rating
Outline: as §3

wild oat = test: Test B postemergence herbicide test; type: in vivo, Avena fatua; conditions: scale 0 (no effect) to 100 (complete control); for Oat, Wild plant response rating: postemergence, visual rating
Outline: as §1

giant foxtail = test: Test B pre-/postemergence herbicide test; type: in vivo, Setaria faberi; conditions: for Foxtail, Giant plant response rating: postemergence, visual rating
Outline: as §3

barnyardgrass = test: Test B pre-/postemergence herbicide test; type: in vivo, Echinochloa crus-galli; conditions: for Barnyardgrass plant response rating: postemergence, visual rating
Outline: as §2

large crabgrass = test: Test B pre-/postemergence herbicide test; type: in vivo, Digitaria sanguinalis; conditions: for Crabgrass, Large plant response rating: postemergence, visual rating
Outline: as §3

pigweed = test: Test B pre-/postemergence herbicide test; type: in vivo, Amaranthus retroflexus; conditions: for Pigweed plant response rating: postemergence, visual rating
Outline: as §3

[1] = test system: small flower umbrella sedge; test: Test B flooded paddy test; type: in vivo, Cyperus difformis; conditions: 1000 g ai/ha, visual rating, scale 0 to 100 (0 no effect, 100 complete control), 13 to 15 days
Outline: (§4)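 Read-out: visual comparison with controls, scored 0 to 100, where 100 means complete control and 0 no effect. Formulated chemicals were applied postemergence to plants 2–18 cm tall (1- to 4-leaf), or to flooded-paddy plants at the 2-leaf stage, then held 13 to 15 days under glass.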

velvetleaf = test: Test B pre-/postemergence herbicide test; type: in vivo, Abutilon theophrasti; conditions: for Velvetleaf plant response rating: postemergence, visual rating
Outline: as §3

blackgrass = test: Test B postemergence herbicide test; type: in vivo, Alopecurus myosuroides; conditions: scale 0 (no effect) to 100 (complete control); for Blackgrass plant response rating: postemergence, visual rating
Outline: as §4

[2] = Postemergence, 500 g ai/ha, visual rating after 13 to 15 days
[3] = 500 g ai/ha, visual rating 0-100, 0 no effect, 100 complete control, preemergence
[4] = Postemergence, 500 g ai/ha, visual rating after 13 to 15 days, scale 0 (no effect) to 100 (complete control)
[5] = 125 g ai/ha, scale 0 (no effect) to 100 (complete control)
[6] = preemergence, 125 g ai/ha, 0 to 100 scale, 0 is no effect, 100 is complete control
[7] = 500 g ai/ha, scale 0 (no effect) to 100 (complete control)

CCOC(=O)c1cc(NC(=O)c2cc(C(C)(C)C)nn2CC)ccc1OCC [Compound 95]
Plant response rating, Wheat (wheat; [2]): 10 | Wheat plant response rating (wheat; 125 g ai/ha): 10 | Plant response rating, Cocklebur (cocklebur; [3]): 0 | Plant response rating, Cocklebur (cocklebur; [4]): 70 | Cocklebur plant response rating (cocklebur; [5]): 60 | Plant response rating, Cocklebur (cocklebur; [6]): 0 | Plant response rating, Morningglory (morningglory; [4]): 60 | Morningglory plant response rating (morningglory; [5]): 0 | Plant response rating, Morningglory (morningglory; [6]): 10 | Plant response rating, Surinam Grass (Surinam grass; [3]): 70 | Plant response rating, Surinam Grass (Surinam grass; [4]): 20 | Surinam Grass plant response rating (Surinam grass; [5]): 20 | Plant response rating, Surinam Grass (Surinam grass; [6]): 20 | Plant response rating, Corn (corn; [3]): 60 | Plant response rating, Corn (corn; [4]): 10 | Corn plant response rating (corn; [5]): 10 | Plant response rating, Corn (corn; [6]): 60 | Plant response rating, Lambsquarters (lambsquarters; [3]): 100 | Plant response rating, Lambsquarters (lambsquarters; [4]): 100 | Lambsquarters plant response rating (lambsquarters; [5]): 100 | Plant response rating, Lambsquarters (lambsquarters; [6]): 100 | Plant response rating, Oat, Wild (wild oat; [2]): 20 | Oat, Wild plant response rating (wild oat; 125 g ai/ha): 10 | Plant response rating, Foxtail, Giant (giant foxtail; [3]): 100 | Plant response rating, Foxtail, Giant (giant foxtail; [4]): 30 | Foxtail, Giant plant response rating (giant foxtail; [5]): 10 | Plant response rating, Foxtail, Giant (giant foxtail; [6]): 50 | Plant response rating, Barnyardgrass (barnyardgrass; [3]): 80 | Plant response rating, Barnyardgrass (barnyardgrass; [4]): 20 | Barnyardgrass plant response rating (barnyardgrass; [5]): 0 | Plant response rating, Barnyardgrass (barnyardgrass; [6]): 50 | Plant response rating, Crabgrass, Large (large crabgrass; [3]): 90 | Plant response rating, Crabgrass, Large (large crabgrass; [4]): 50 | Crabgrass, Large plant response rating (large crabgrass; [5]): 0 | Plant response rating, Crabgrass, Large (large crabgrass; [6]): 60 | Plant response rating, Pigweed (pigweed; [3]): 100 | Plant response rating, Pigweed (pigweed; [4]): 100 | Pigweed plant response rating (pigweed; [5]): 90 | Plant response rating, Pigweed (pigweed; [6]): 100 | Sedge, Umbrella plant response rating [1]: 80 | Plant response rating, Velvetleaf (velvetleaf; [3]): 60 | Plant response rating, Velvetleaf (velvetleaf; [4]): 60 | Velvetleaf plant response rating (velvetleaf; [5]): 50 | Plant response rating, Velvetleaf (velvetleaf; [6]): 0 | Plant response rating, Blackgrass (blackgrass; [2]): 0 | Blackgrass plant response rating (blackgrass; 125 g ai/ha): 0

CCn1nc(C(C)(C)C)cc1C(=O)Nc1cccc(C(C)=O)c1 [Compound 122]
Wheat plant response rating (wheat; 125 g ai/ha): 0 | Wheat plant response rating (wheat; 500 g ai/ha): 10 | Plant response rating, Cocklebur (cocklebur; [3]): 70 | Cocklebur plant response rating (cocklebur; [5]): 70 | Cocklebur plant response rating (cocklebur; [7]): 90 | Plant response rating, Cocklebur (cocklebur; [6]): 20 | Plant response rating, Morningglory (morningglory; [3]): 70 | Morningglory plant response rating (morningglory; [5]): 0 | Morningglory plant response rating (morningglory; [7]): 0 | Plant response rating, Morningglory (morningglory; [6]): 20 | Plant response rating, Surinam Grass (Surinam grass; [3]): 70 | Surinam Grass plant response rating (Surinam grass; [5]): 10 | Surinam Grass plant response rating (Surinam grass; [7]): 10 | Plant response rating, Surinam Grass (Surinam grass; [6]): 20 | Plant response rating, Corn (corn; [3]): 30 | Corn plant response rating (corn; [5]): 10 | Corn plant response rating (corn; [7]): 10 | Plant response rating, Corn (corn; [6]): 0 | Plant response rating, Lambsquarters (lambsquarters; [3]): 100 | Lambsquarters plant response rating (lambsquarters; [5]): 0 | Lambsquarters plant response rating (lambsquarters; [7]): 0 | Plant response rating, Lambsquarters (lambsquarters; [6]): 80 | Oat, Wild plant response rating (wild oat; 125 g ai/ha): 10 | Oat, Wild plant response rating (wild oat; 500 g ai/ha): 40 | Plant response rating, Foxtail, Giant (giant foxtail; [3]): 80 | Foxtail, Giant plant response rating (giant foxtail; [5]): 10 | Foxtail, Giant plant response rating (giant foxtail; [7]): 20 | Plant response rating, Foxtail, Giant (giant foxtail; [6]): 50 | Plant response rating, Barnyardgrass (barnyardgrass; [3]): 90 | Barnyardgrass plant response rating (barnyardgrass; [5]): 0 | Barnyardgrass plant response rating (barnyardgrass; [7]): 20 | Plant response rating, Barnyardgrass (barnyardgrass; [6]): 80 | Plant response rating, Crabgrass, Large (large crabgrass; [3]): 100 | Crabgrass, Large plant response rating (large crabgrass; [5]): 10 | Crabgrass, Large plant response rating (large crabgrass; [7]): 10 | Plant response rating, Crabgrass, Large (large crabgrass; [6]): 90 | Plant response rating, Pigweed (pigweed; [3]): 80 | Pigweed plant response rating (pigweed; [5]): 0 | Pigweed plant response rating (pigweed; [7]): 10 | Plant response rating, Pigweed (pigweed; [6]): 70 | Sedge, Umbrella plant response rating [1]: 80 | Plant response rating, Velvetleaf (velvetleaf; [3]): 60 | Velvetleaf plant response rating (velvetleaf; [5]): 10 | Velvetleaf plant response rating (velvetleaf; [7]): 20 | Plant response rating, Velvetleaf (velvetleaf; [6]): 40 | Blackgrass plant response rating (blackgrass; 125 g ai/ha): 0 | Blackgrass plant response rating (blackgrass; 500 g ai/ha): 10
